The subject of one assay is MPTP lesioned mice. The assay can be described thus: Dopamine, DOPAC and HVA in striatum of MPTP lesioned mice (HPLC). It is filed as in vivo, mouse. As to conditions: 2 x 10^8 bacteria p.o. 18 days, MPTP 4 × 20 mg/kg i.p. day 0, day 4 sampling. On the procedure:
The aim of this study was to evaluate the effects of MRX0029 anaerobic bacteria using MPTP lesioned mice. 48 male mice were allocated to 4 different treatment groups (groups A, B, E and I, with n=12 animals in each group). The treatment groups are shown in Table 1 below and the project time course is outlined below.
Groups A, B, E and I were treated daily for 18 days via oral gavage with either bacteria (MRx0029-group E), or vehicle (PBS). Oral treatment started 14 days before MPTP lesion. Group I animals received a daily vehicle (PBS) p.o. (per oral) treatment and were injected i.p. (intraperitoneal) with the reference drug 30 min before and 90 min after first MPTP on day 0. The application volume for p.o. and vehicle treatment was 200 μl per mouse. Bacteria strain of group E was from glycerol stocks (gly). For oral treatment, gavages for applications were stored in vial containing 70% Ethanol and were flushed before and after each use with distilled water. Every treatment group had its own gavage and ethanol vial and distilled water vial. The tubes and gavages were not changed between the groups. […]
Concentrations of DA, DOPAC and HVA in the striatal samples were determined by column liquid chromatography with electrochemical detection [110; 111]. […] The chromatograms were recorded and integrated by use of a computerized data acquisition system (DataApex, Prague, Czech Republic). […]

In assay [1] the test system is HT29-mtx epithelial, mucin-producing cell monolayers. As to the kind of experiment: IL-8 secretion of HT29-mtx monolayers. It is filed as cell-based. The conditions noted are these: bacterial supernatants 24 h; compared to untreated and YCFA-treated cells. An excerpt: HT29-mtx epithelial, mucin-producing cell monolayers were used as an in vitro model to evaluate gut barrier disruption and immune stimulation following treatment with MRx0005 and MRx0029.

The test system of another assay is BALBc mice. As to the kind of experiment: Monoamine analysis in brainstem of mice fed with bacteria (HPLC). It is filed as in vivo, mouse. As to conditions: 1×10^9 CFU oral gavage 6 days.
The nature of assay [2]: Lipid peroxidation, thiobarbituric reactive substances assay (TBARs). The conditions noted are these: positive control butylated hydroxytoluene (1% w/v). On the procedure: Bacterial cells (10^6 or greater) were collected and centrifuged, a wash step was performed with isotonic saline before the pellet was re-suspended in potassium chloride assay buffer. The suspension was sonicated on ice for 10 minutes and then spun down at 10,000×g for 10 minutes. The supernatant was removed and the level of lipid peroxidation evaluated using the thiobarbituric reactive substances assay.

Another assay has as its target T1, HDAC3 (Homo sapiens, UniProt O15379).
T1 construct: purchased BPS Bioscience, CA
The assay can be described thus: Specific HDAC activity analysis (fluorogenic assay kit, BPS Bioscience). It is filed as biochemical. The conditions noted are these: cell free supernatant diluted 1 in 10. On the procedure: (§1) Specific HDAC inhibition activity was analysed for HDAC1, 2, 3, 4, 5, 6, 9 using fluorogenic assay kits for each type of HDAC (BPS Bioscience, CA). Assays were conducted according to manufacturer's instructions and each sample were performed in replicates. Cell free supernatants were diluted 1 in 10 and exposed to specific HDAC proteins provided in the kit to maintain consistency between methods.

The target in the next assay is T2, HDAC1 (Homo sapiens, UniProt Q13547).
T2 construct: purchased BPS Bioscience, CA
The assay is described as above. The conditions noted are these: cell free supernatant diluted 1 in 10. It is filed as biochemical. On the procedure:
as §1

The target of another assay is T3, HDAC2 (Homo sapiens, UniProt Q92769).
T3 construct: purchased BPS Bioscience, CA
The assay is described as above. As to conditions: cell free supernatant diluted 1 in 10. It is filed as biochemical. On the procedure:
as §1

T1 sequence (O15379 whole entry): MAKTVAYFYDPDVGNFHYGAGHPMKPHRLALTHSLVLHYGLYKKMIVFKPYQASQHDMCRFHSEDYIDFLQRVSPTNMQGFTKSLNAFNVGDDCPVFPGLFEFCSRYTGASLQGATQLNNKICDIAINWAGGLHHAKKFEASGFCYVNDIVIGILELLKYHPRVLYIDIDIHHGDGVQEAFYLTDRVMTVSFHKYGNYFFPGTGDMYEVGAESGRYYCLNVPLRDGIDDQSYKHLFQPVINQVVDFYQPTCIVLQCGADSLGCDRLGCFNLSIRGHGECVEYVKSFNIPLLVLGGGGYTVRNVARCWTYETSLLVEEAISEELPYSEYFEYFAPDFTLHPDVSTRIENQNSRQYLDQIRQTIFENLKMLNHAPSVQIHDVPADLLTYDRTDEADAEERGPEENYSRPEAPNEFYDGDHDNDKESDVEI
T1 sequence (Q9Y618 395-489 partner limits assumed): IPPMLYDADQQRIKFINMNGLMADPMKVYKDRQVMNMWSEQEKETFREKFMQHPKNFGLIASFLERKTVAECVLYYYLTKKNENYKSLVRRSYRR
T2 sequence (Q13547 whole entry): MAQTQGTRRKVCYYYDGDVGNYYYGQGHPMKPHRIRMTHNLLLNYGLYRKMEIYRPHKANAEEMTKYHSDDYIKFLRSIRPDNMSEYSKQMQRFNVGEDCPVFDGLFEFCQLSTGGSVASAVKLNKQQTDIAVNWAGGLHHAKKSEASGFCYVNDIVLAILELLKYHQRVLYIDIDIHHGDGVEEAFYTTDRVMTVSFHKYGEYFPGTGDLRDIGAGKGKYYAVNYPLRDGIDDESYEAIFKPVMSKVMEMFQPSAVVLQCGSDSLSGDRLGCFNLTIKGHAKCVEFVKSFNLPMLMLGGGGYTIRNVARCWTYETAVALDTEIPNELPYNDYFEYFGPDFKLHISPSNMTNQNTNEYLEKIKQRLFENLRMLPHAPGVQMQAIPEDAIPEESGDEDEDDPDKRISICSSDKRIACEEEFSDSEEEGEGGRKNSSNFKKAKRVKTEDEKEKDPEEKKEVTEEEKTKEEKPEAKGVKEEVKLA
T3 sequence (Q92769 whole entry): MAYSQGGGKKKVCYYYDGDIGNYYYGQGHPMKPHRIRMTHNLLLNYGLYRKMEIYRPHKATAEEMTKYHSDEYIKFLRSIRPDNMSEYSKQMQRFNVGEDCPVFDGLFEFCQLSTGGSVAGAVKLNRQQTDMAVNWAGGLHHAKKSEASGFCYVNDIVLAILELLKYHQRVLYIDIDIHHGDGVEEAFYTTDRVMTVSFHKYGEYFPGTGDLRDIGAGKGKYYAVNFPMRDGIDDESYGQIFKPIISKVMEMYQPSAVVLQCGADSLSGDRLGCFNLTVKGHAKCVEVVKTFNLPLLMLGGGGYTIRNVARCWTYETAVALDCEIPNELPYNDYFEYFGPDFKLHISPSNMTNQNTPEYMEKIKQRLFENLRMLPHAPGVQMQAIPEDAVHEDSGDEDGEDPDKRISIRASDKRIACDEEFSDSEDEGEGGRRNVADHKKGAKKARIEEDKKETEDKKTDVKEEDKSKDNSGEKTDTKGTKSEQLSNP
Method for BALBc mice: Animals were allowed to habituate to their holding room for one week after arrival into the animal unit. They receive oral gavage (200 μL dose) of live biotherapeutics at a dose of 1×10^9 CFU for 6 consecutive days between 15:00 and 17:00. On day 7, the animals are decapitated, and tissues are harvested for experimentation.
Neurotransmitter concentration was analysed by HPLC on samples from the brainstem. Briefly, brainstem tissue was sonicated in 500 μl of chilled mobile phase spiked with 4 ng/40 μl of N-Methyl 5-HT (Sigma Chemical Co., UK) as internal standard. The mobile phase contained 0.1 M citric acid, 5.6 mM octane-1-sulphonic acid (Sigma), 0.1 M sodium dihydrogen phosphate, 0.01 mM EDTA (Alkem/Reagecon, Cork) and 9% (v/v) methanol (Alkem/Reagecon) and was adjusted to pH 2.8 using 4 N sodium hydroxide (Alkem/Reagecon). Homogenates were then centrifuged for 15 min at 22,000×g at 4° C. and 40 μl of the supernatant injected onto the HPLC system which consisted of a SCL 10-Avp system controller, LECD 6A electrochemical detector (Shimadzu), a LC-10AS pump, a CTO-10A oven, a SIL-10A autoinjector (with sample cooler maintained at 40 C) and an online Gastorr Degasser (ISS, UK). A reverse-phase column (Kinetex 2.6 u C18 100×4.6 mm, Phenomenex) maintained at 30° C. was employed in the separation (Flow rate 0.9 ml/min). The glassy carbon working electrode combined with an Ag/AgCl reference electrode (Shimdazu) operated a +0.8 V and the chromatograms generated were analyzed using Class-VP 5 software (Shimadzu). The neurotransmitters were identified by their characteristic retention times as determined by standard injections, which run at regular intervals during the sample analysis. The ratios of peak heights of analyte versus internal standard were measured and compared with standard injection. Results were expressed as ng of neurotransmitter per g fresh weight of tissue.

In the case of Megasphaera massiliensis [MRx0029], in the assay on MPTP lesioned mice, the DOPAC in striatum result is on record as “recover production” and the Dopamine in striatum result is on record as “recover production”. In addition, the “secretion of IL-8” value in assay [1] was “even lower secretion”. Further, in the assay on BALBc mice, the 5-HIAA in brain result was “slight increase” and the serotonin in brain result is given as “slight increase”. Further, the “noradrenaline levels in brain” value in the assay on BALBc mice (p=0.0507) was “increased”. The “inhibition of lipid peroxidation” value in assay [2] is recorded as “approximately 20%”. At HDAC3, the HDAC3 inhibition entry is “very potent inhibitor”. In addition, the HDAC1 inhibition result at HDAC1 is “very potent inhibitor”. On HDAC2, the HDAC2 inhibition entry is recorded as “very potent inhibitor”.

(Values after patent US11660319B2, “Compositions comprising bacterial strains” (priority 2017, dated 2023).)
